Data as given in patent US20260048051A1, “TREATMENT OF INFLAMMATORY BOWEL DISEASE” (Atomwise Inc., priority 2024, published 2026).
Where two headings read alike, the source gives them in different places.

System: IFNα/pSTAT5
Assay: Whole blood potency (IFNα/pSTAT5), human
Format: cell-based
Details: CD4+ T cells, read-out: Cellular Whole Blood Potency IC50 (IFNα/pSTAT5), Human
Description: Heparinized human whole blood (5 different donors) was acquired from the Stanford Blood Center and used fresh for each experiment. Whole blood was plated (90 μl per well) into a 96-well assay plate immediately prior to initiation of the assay.
Test compounds were diluted serially (3-fold) in DMSO to generate a series of 10 concentrations (at 200× final assay concentrations). […] DMSO dilutions were diluted 10-fold in PBS to generate 20× final assay concentrations.
Pre-incubation of compounds and whole blood was initiated by adding 5 μl of the compound dilutions to the assay plates and incubated for 30 min at 37° C. Blood was then stimulated by the addition of IFN-α (5 μl of 200 ng/ml) (Miltenyi #130-093-873) followed by incubation at 37° C. for 15 min. Assays were terminated by the addition of Lyse/Fix (BD Biosciences #558049) (60 μl treated blood+1 ml Lyse/Fix) and incubated for 10 min. Cells were diluted 1:1 with Wash Buffer (PBS+0.3% BSA) and centrifuged to pellet white blood cells. Fixed cells were washed once with Wash Buffer and the pelleted cell plate was frozen at −80° C.
Cells were thawed and washed once with Wash Buffer prior to the addition of the α-CD3-Blue520 antibody (2 μg/ml final concentration; Biolegend #300481) and incubated for 30 min. Cells were washed twice in Wash Buffer followed by permeabilization in 100% cold methanol for 15 min. Cells were washed three times in Wash Buffer prior to the addition of the α-CD4-APC antibody ([…] final concentration; Biolegend #300514) and the α-pSTAT5-PE antibody (0.67 μg/ml final concentration; Biolegend #936904) and incubated for 90 min. Cells were washed twice in Wash Buffer and resuspended in 90 μl Wash Buffer prior to running on a LSRII flow cytometer (BD Biosciences, San Jose, CA). Total T cells (CD3+) and CD4+ cells were gated, and the Mean Fluorescence Intensity (MFI) was determined from the PE channel to quantify pSTAT5 signal.
The pSTAT5 MFI in the CD4+ gate was used to calculated Activity (% Control):
Data were then analyzed by non-linear regression to determine inhibitory potencies […] using the following equation in Collaborative Drug Discovery (Burlingame, CA): […]
where X: log concentration in Molar; Y: Activity (% Control); Top: curve top plateau; Bottom: curve bottom plateau, fixed range from −20-20%; Hill Slope: unconstrained. Potency data are reported as pIC50 or pIC90 values ±SD. IC90 values are defined from the fitted IC50 values: […]. FIG. 5A.
Exemplary compounds of the invention, compounds 1 and 2 were compared in this assay.

Row | SMILES | IC50 | IC50 (Homo sapiens, CD4+ T)
1 | C[C@@H](c1ccc(Nc2cc(Nc3ncccc3S(C)(=O)=O)ncn2)nc1)N1CC2(COC2)C1 [Compound 1, (S)—N^4-(5-(1-(2-oxa-6-azaspiro[3.3]heptan-6-yl)ethyl)pyridin-2-yl)-N^6-(3-(methylsulfonyl)pyridin-2-yl)pyrimidine-4,6-diamine] | 29.1 nM | ~15.8 nM
2 | C[C@@H](c1ccc(Nc2cc(Nc3ncc(F)cc3S(C)(=O)=O)ncn2)nc1)N1CC2(COC2)C1 [Compound 2, (S)—N^4-(5-(1-(2-oxa-6-azaspiro[3.3]heptan-6-yl)ethyl)pyridin-2-yl)-N^6-(5-fluoro-3-(methylsulfonyl)pyridin-2-yl)pyrimidine-4,6-diamine] | 15.8 nM | ~29 nM
